From US10233173B2, “Substituted 1,2,3-triazoles as NR2B-selective NMDA modulators” (JANSSEN PHARMACEUTICA NV, priority 2016, dated 2019) come the findings set out here.

The target of this experiment is human GluN1/GluN2B NMDA receptors (Homo sapiens, UniProt Q05586+Q13224). Kind of experiment: Cell-based calcium flux (FLIPR) assay on cloned human NR1/NR2B ion channels expressed in mammalian cells. The conditions noted are these: standard assay; glutamate at ~EC80; FLIPR calcium flux. The gist of the method: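 Calcium influx followed by FLIPR fluorescence after 5 min compound exposure and a further 5 min co-agonist challenge: 10 μM glycine with glutamate at ~EC80 (standard) or EC40 (HTS).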
On the technique in general: A change in cytosolic calcium serves as a functional read-out for many receptors and channels.

Chain of human GluN1/GluN2B NMDA receptors (Q13224 27-1484, other chains not shown): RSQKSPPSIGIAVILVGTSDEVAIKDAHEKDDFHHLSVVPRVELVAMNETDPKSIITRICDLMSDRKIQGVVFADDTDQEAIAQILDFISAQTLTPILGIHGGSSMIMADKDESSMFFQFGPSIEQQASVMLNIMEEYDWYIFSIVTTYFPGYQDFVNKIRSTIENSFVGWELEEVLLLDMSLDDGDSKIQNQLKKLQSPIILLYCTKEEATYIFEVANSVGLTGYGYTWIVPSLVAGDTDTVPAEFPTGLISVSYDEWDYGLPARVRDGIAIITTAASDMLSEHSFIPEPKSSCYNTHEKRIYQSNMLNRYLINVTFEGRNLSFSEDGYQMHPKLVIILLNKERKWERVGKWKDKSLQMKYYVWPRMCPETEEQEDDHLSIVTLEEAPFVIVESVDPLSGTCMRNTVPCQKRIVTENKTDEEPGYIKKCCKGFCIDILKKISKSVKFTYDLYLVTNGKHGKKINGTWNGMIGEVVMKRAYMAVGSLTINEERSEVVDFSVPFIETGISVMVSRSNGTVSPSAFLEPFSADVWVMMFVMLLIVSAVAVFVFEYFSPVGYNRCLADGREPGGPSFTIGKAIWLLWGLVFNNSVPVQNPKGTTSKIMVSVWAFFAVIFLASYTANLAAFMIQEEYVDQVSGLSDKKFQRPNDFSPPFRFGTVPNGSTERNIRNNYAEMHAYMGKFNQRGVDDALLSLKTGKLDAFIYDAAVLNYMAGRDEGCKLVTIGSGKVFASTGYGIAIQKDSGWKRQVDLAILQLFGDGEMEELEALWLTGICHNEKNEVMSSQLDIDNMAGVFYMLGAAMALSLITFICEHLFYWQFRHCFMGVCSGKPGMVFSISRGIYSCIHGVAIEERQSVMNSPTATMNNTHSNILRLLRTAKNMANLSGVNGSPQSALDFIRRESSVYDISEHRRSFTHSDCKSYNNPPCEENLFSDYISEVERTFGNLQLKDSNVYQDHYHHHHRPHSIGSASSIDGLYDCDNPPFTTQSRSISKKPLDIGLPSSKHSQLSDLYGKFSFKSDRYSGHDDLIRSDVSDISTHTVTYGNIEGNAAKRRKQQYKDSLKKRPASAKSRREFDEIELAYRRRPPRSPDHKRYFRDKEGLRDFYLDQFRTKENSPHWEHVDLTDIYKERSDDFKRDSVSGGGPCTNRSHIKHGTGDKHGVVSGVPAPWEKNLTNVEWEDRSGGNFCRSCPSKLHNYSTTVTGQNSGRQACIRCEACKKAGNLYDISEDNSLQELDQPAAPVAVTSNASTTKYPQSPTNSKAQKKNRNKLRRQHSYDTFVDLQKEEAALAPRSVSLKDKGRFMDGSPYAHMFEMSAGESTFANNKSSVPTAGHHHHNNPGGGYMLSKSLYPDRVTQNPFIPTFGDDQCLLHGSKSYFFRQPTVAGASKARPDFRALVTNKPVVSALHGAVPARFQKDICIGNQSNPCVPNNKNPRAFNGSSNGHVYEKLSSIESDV

For the compound `Cc1cnc(OCc2cn(-c3ccc(Cl)c(C(C)(F)F)c3)nn2)nc1` [Example 530, 2-[[1-[4-Chloro-3-(1,1-difluoroethyl)phenyl]triazol-4-yl]methoxy]-5-methyl-pyrimidine], the IC50 worked out at 0.005 µM. To `Cc1ccnc(OCc2cn(-c3ccc(Cl)c(C(C)(F)F)c3)nn2)n1` [Example 531, 2-[[1-[4-Chloro-3-(1,1-difluoroethyl)phenyl]triazol-4-yl]methoxy]-4-methyl-pyrimidine] belongs 0.017 µM. For `CC(C)(O)c1cnc(OCc2cn(-c3ccc(Cl)c(C(C)(F)F)c3)nn2)nc1` [Example 532, 2-[2-[[1-[4-Chloro-3-(1,1-difluoroethyl)phenyl]triazol-4-yl]methoxy]pyrimidin-5-yl]propan-2-ol], the IC50 worked out at 0.081 µM. To `CC(F)(F)c1cc(-n2cc(COc3ncc(CO)cn3)nn2)ccc1Cl` [Example 533, [2-[[1-[4-Chloro-3-(1,1-difluoroethyl)phenyl]triazol-4-yl]methoxy]pyrimidin-5-yl]methanol] belongs 0.017 µM. Turning to `CC(F)(F)c1cc(-n2cc(COc3ncc(C(F)F)cn3)nn2)ccc1Cl` [Example 535, 2-[[1-[4-Chloro-3-(1,1-difluoroethyl)phenyl]triazol-4-yl]methoxy]-5-(difluoromethyl)pyrimidine], the half-maximal inhibitory concentration (IC50) was determined as 0.009 µM. To `CC(F)(F)c1cc(-n2cc(COc3nccc(C(F)F)n3)nn2)ccc1Cl` [Example 536, 2-[[1-[4-Chloro-3-(1,1-difluoroethyl)phenyl]triazol-4-yl]methoxy]-4-(difluoromethyl)pyrimidine] belongs 0.067 µM; to `CC(F)(F)c1cc(-n2cc(COc3ncc(C(F)(F)F)cn3)nn2)ccc1Cl` [Example 537, 2-[[1-[4-Chloro-3-(1,1-difluoroethyl)phenyl]triazol-4-yl]methoxy]-5-(trifluoromethyl)pyrimidine], 0.016 µM. `CC(F)(F)c1cc(-n2cc(COc3nccc(C(F)(F)F)n3)nn2)ccc1Cl` [Example 538, 2-[[1-[4-Chloro-3-(1,1-difluoroethyl)phenyl]triazol-4-yl]methoxy]-4-(trifluoromethyl)pyrimidine]: the IC50 is 0.318 µM. To `CC(F)(F)c1cc(-n2cc(COc3nccc(CO)n3)nn2)ccc1Cl` [Example 540, [2-[[1-[4-Chloro-3-(1,1-difluoroethyl)phenyl]triazol-4-yl]methoxy]pyrimidin-4-yl]methanol] belongs 0.019 µM. To `COc1ccnc(OCc2cn(-c3ccc(Cl)c(C(C)(F)F)c3)nn2)n1` [Example 541, 2-[[1-[4-Chloro-3-(1,1-difluoroethyl)phenyl]triazol-4-yl]methoxy]-4-methoxy-pyrimidine] belongs 0.012 µM. As to `CC(F)(F)c1cc(-n2cc(COc3ncc(OC(F)F)cn3)nn2)ccc1Cl` [Example 542, 2-[[1-[4-Chloro-3-(1,1-difluoroethyl)phenyl]triazol-4-yl]methoxy]-5-(difluoromethoxy)pyrimidine], the IC50 was 0.012 µM. Consider `Cc1nc(OCc2cn(-c3ccc(Cl)c(C(C)(F)F)c3)nn2)ncc1Cl` [Example 543, 5-Chloro-2-[[1-[4-chloro-3-(1,1-difluoroethyl)phenyl]triazol-4-yl]methoxy]-4-methyl-pyrimidine], for which the half-inhibitory concentration (IC50) was 0.015 µM. The same measure for `Cc1nc(OCc2cn(-c3ccc(Cl)c(C(C)(F)F)c3)nn2)ncc1F` [Example 544, 2-[[1-[4-Chloro-3-(1,1-difluoroethyl)phenyl]triazol-4-yl]methoxy]-5-fluoro-4-methyl-pyrimidine]: 0.015 µM.

On to `Cc1cnc(OCc2cn(-c3ccc(Cl)c(C(C)(F)F)c3)nn2)nc1C` [Example 545, 2-[[1-[4-Chloro-3-(1,1-difluoroethyl)phenyl]triazol-4-yl]methoxy]-4,5-dimethyl-pyrimidine], for which the IC50 came out at 0.006 µM. For `Cc1cc(C)nc(OCc2cn(-c3ccc(Cl)c(C(C)(F)F)c3)nn2)n1` [Example 546, 2-[[1-[4-Chloro-3-(1,1-difluoroethyl)phenyl]triazol-4-yl]methoxy]-4,6-dimethyl-pyrimidine], the 50% inhibitory concentration (IC50) is 0.024 µM. The same measure for `CC(F)(F)c1cc(-n2cc(COc3nccc(N)n3)nn2)ccc1Cl` [Example 547, 2-[[1-[4-Chloro-3-(1,1-difluoroethyl)phenyl]triazol-4-yl]methoxy]pyrimidin-4-amine]: 0.033 µM; for `CNc1ccnc(OCc2cn(-c3ccc(Cl)c(C(C)(F)F)c3)nn2)n1` [Example 548, 2-[[1-[4-Chloro-3-(1,1-difluoroethyl)phenyl]triazol-4-yl]methoxy]-N-methyl-pyrimidin-4-amine]: 0.055 µM. To `CNc1nc(OCc2cn(-c3ccc(Cl)c(C(C)(F)F)c3)nn2)ncc1F` [Example 549, 2-[[1-[4-Chloro-3-(1,1-difluoroethyl)phenyl]triazol-4-yl]methoxy]-5-fluoro-N-methyl-pyrimidin-4-amine] belongs 0.094 µM; to `CC(=O)c1cnc(OCc2cn(-c3ccc(Cl)c(C(C)(F)F)c3)nn2)nc1` [Example 550, 1-[2-[[1-[4-Chloro-3-(1,1-difluoroethyl)phenyl]triazol-4-yl]methoxy]pyrimidin-5-yl]ethanone], 0.016 µM; to `CC(F)(F)c1cc(-n2cc(COc3ncc(C4CC4)cn3)nn2)ccc1Cl` [Example 552, 2-[[1-[4-Chloro-3-(1,1-difluoroethyl)phenyl]triazol-4-yl]methoxy]-5-cyclopropyl-pyrimidine], 0.086 µM. To `CC(F)(F)c1cc(-n2cc(COc3nccc(N4CCCC4)n3)nn2)ccc1Cl` [Example 553, 2-[[1-[4-Chloro-3-(1,1-difluoroethyl)phenyl]triazol-4-yl]methoxy]-4-pyrrolidin-1-yl-pyrimidine] belongs 0.043 µM; to `CC(F)(F)c1cc(-n2cc(COc3ccccn3)nn2)ccc1F` [Example 554, 2-[[1-[3-(1,1-Difluoroethyl)-4-fluoro-phenyl]triazol-4-yl]methoxy]pyridine], 1.64 µM.

Consider `CC(F)(F)c1cc(-n2cc(COc3ncccc3F)nn2)ccc1F` [Example 555, 2-[[1-[3-(1,1-Difluoroethyl)-4-fluoro-phenyl]triazol-4-yl]methoxy]-3-fluoro-pyridine], for which the half-maximal inhibitory concentration (IC50) came out at 0.265 µM. The same measure for `Cc1cccc(OCc2cn(-c3ccc(F)c(C(C)(F)F)c3)nn2)n1` [Example 556, 2-[[1-[3-(1,1-Difluoroethyl)-4-fluoro-phenyl]triazol-4-yl]methoxy]-6-methyl-pyridine]: 0.098 µM. Regarding `Cc1ccnc(OCc2cn(-c3ccc(F)c(C(C)(F)F)c3)nn2)c1` [Example 557, 2-[[1-[3-(1,1-Difluoroethyl)-4-fluoro-phenyl]triazol-4-yl]methoxy]-4-methyl-pyridine], the concentration for half-maximal inhibition (IC50) was 0.246 µM. `Cc1ccc(OCc2cn(-c3ccc(F)c(C(C)(F)F)c3)nn2)nc1` [Example 558, 2-[[1-[3-(1,1-Difluoroethyl)-4-fluoro-phenyl]triazol-4-yl]methoxy]-5-methyl-pyridine]: the IC50 was 0.125 µM. In the case of `CC(F)(F)c1cc(-n2cc(COc3ccc(C(F)(F)F)cn3)nn2)ccc1F` [Example 559, 2-[[1-[3-(1,1-Difluoroethyl)-4-fluoro-phenyl]triazol-4-yl]methoxy]-5-(trifluoromethyl)pyridine], the 50% inhibitory concentration (IC50) is 0.812 µM.

In general, IC50 refers to the concentration needed to halve the response being measured.
